Source: ChEMBL document CHEMBL1125440, “Synthesis and antiviral activity of acyclic nucleosides with a 3(S),5-dihydroxypentyl or 4(R)-methoxy-3(S),5-dihydroxypentyl side chain” (1992)
≈ marks a conversion by molar mass, not a printed value.

Assays:
[1] = system: E6SM; test: Minimum inhibitory concentration (MIC) required to reduce Lyons strain of HSV-2 induced cytopathogenicity by 50% in E6SM cells; format: functional; settings: Homo sapiens
[2] = system: E6SM; test: Minimum inhibitory concentration (MIC) required to reduce McIntyre strain of HSV-1 induced cytopathogenicity by 50% in E6SM cells; format: functional; settings: Homo sapiens
[3] = system: E6SM; test: Minimum cytotoxic concentration (MCC) required to cause a microscopically detectable alteration of normal cell morphology against E6SM cells; format: functional; settings: Homo sapiens
[4] = system: E6SM; test: Minimum inhibitory concentration (MIC) required to reduce VMW 1837 strain of TK-HSV-1 induced cytopathogenicity by 50% in E6SM cells; format: functional; settings: Homo sapiens
[5] = system: E6SM; test: Minimum inhibitory concentration (MIC) required to reduce B2006 strain of TK-HSV-1 induced cytopathogenicity by 50% in E6SM cells; format: functional; settings: Homo sapiens
[6] = system: E6SM; test: Minimum inhibitory concentration (MIC) required to reduce KOS strain of HSV-1 induced cytopathogenicity by 50% in E6SM cells; format: functional; settings: Homo sapiens
[7] = system: E6SM; test: (§1) Compounds was evaluated for its inhibitory effect on cytopathogenicity of vesicular stomatitis virus (VSV) in E6SM cells; format: functional; settings: Homo sapiens
[8] = system: E6SM; test: Minimum inhibitory concentration (MIC) required to reduce F strain of HSV-1 induced cytopathogenicity by 50% in E6SM cells; format: functional; settings: Homo sapiens
[9] = system: E6SM; test: Minimum inhibitory concentration (MIC) required to reduce 196 strain of HSV-2 induced cytopathogenicity by 50% in E6SM cells; format: functional; settings: Homo sapiens
[10] = system: E6SM; test: Minimum inhibitory concentration (MIC) required to reduce G strain of HSV-2 induced cytopathogenicity by 50% in E6SM cells; format: functional; settings: Homo sapiens
[11] = system: E6SM; test: (§2) Compounds was evaluated for its inhibitory effect on cytopathogenicity of vaccinia virus (VV) in E6SM cells; format: functional; settings: Homo sapiens
[12] = system: E6SM; test: as §1; format: functional, Homo sapiens
[13] = system: E6SM; test: as §2; format: functional, Homo sapiens

`Nc1nc(O)c2ncn(CC[C@H](O)CCO)c2n1` showed an MIC [1] of 5 µg/mL (≈ 19.7 µM), an MIC [2] of 0.6 µg/mL (≈ 2.37 µM) and an MCC [3] greater than 400 µg/mL. It also gave an MIC [4] greater than 400 µg/mL, an MIC [5] greater than 400 µg/mL and an MIC [6] of 0.4 µg/mL (≈ 1.58 µM). For the same molecule, the MIC [7] was greater than 400 µg/mL, the MIC [8] was 0.4 µg/mL (≈ 1.58 µM) and the MIC [9] was 20 µg/mL (≈ 79 µM). For the same molecule, the MIC [10] was 4 µg/mL (≈ 15.8 µM) and the MIC [11] was greater than 400 µg/mL.
With `Nc1ncnc2c1ncn2C[C@H](O)CO` [(S)-DHPA] the MIC [1] was 250 µg/mL (≈ 1190 µM), the MIC [2] was 70 µg/mL (≈ 335 µM) and the MCC [3] was greater than 400 µg/mL. The MIC [4] was greater than 400 µg/mL, the MIC [5] was 300 µg/mL (≈ 1430 µM) and the MIC [6] was 300 µg/mL (≈ 1430 µM). It also gave an MIC [7] of 70 µg/mL (≈ 335 µM), an MIC [8] of 70 µg/mL (≈ 335 µM) and an MIC [9] of 300 µg/mL (≈ 1430 µM). The MIC [10] was 300 µg/mL (≈ 1430 µM) and the MIC [11] was 70 µg/mL (≈ 335 µM).
`Nc1nc2c(ncn2COCCO)c(=O)[nH]1` [ACYCLOVIR] was tested, and the MIC [1] was 0.02 µg/mL (≈ 0.0888 µM), the MIC [2] was 0.02 µg/mL (≈ 0.0888 µM) and the MCC [3] was greater than 400 µg/mL. It also gave an MIC [4] of 10 µg/mL (≈ 44.4 µM), a VSV [12] greater than 400 and an MIC [5] of 70 µg/mL (≈ 311 µM). The MIC [6] was 0.07 µg/mL (≈ 0.311 µM), the MIC [8] was 0.04 µg/mL (≈ 0.178 µM) and the MIC [9] was 0.015 µg/mL (≈ 0.0666 µM). For the same molecule, the VV [13] was greater than 400 and the MIC [10] was 0.04 µg/mL (≈ 0.178 µM).
